This note sets out measurements from US10087178B2, “Substituted spiropyrido[1,2-a]pyrazine derivative and medicinal use thereof as HIV integrase inhibitor” (priority 2012, dated 2018).

Counter-ions that a name gives are not always drawn.

The first assay relates to HIV-1 NL4-3 strain. The assay is described as follows: Evaluation of antiviral activity: acute infection system of MT-4 cell with HIV-1 NL4-3 strain. The assay is classed as cell-based. The following applies: Human immunodeficiency virus 1, NL43, MT4, 120 h, MT-4 cells infected with HIV-1 NL4-3 strain (MOI 0.05), cultured 5 days, Cell Titer-Glo; read-out: antiviral activity (EC50). On the technique in general: In ATP-based viability assays light output follows the ATP content of the culture.
As usually defined, the EC50 is the concentration that produces a half-maximal response. `CCC(=O)Oc1c2n(cc(C(=O)NCc3cccc(Cl)c3F)c1=O)[C@]1(CN(C)C2=O)C[C@H](OC)C1` [Example S65, 7′-(3-chloro-2-fluorobenzylcarbamoyl)-cis-3-methoxy-2′-methyl-1′,8′-dioxo-1′,2′,3′,8′-tetrahydrospiro[cyclobutane-1,4′-pyrido[1,2-a]pyrazin]-9′-yl propionate]: the EC50 turned out to be 1 nM.
Regarding `CC(C)O[C@H]1C[C@@]2(CN(C(C)C)C(=O)c3c(O)c(=O)c(C(=O)NCc4ccc(F)cc4F)cn32)C1` [Example S32, N-(2,4-difluorobenzyl)-9′-hydroxy-trans-3-isopropoxy-2′-isopropyl-1′,8′-dioxo-1′,2′,3′,8′-tetrahydrospiro[cyclobutane-1,4′-pyrido[1,2-a]pyrazine]-7′-carboxamide hydrochloride], the EC50 was found to be 6.6 nM.
Turning to `CN1C[C@]2(C[C@H](O)C2)n2cc(C(=O)NCc3cccc(Cl)c3F)c(=O)c(O)c2C1=O` [Example S27, N-(3-chloro-2-fluorobenzyl)- cis-3,9′-dihydroxy-2′-methyl-1′,8′-dioxo-1′,2′,3′,8′-tetrahydrospiro[cyclobutane-1,4′-pyrido[1,2-a]pyrazine]-7′-carboxamide hydrochloride], the EC50 was found to be 14 nM.
With `CC(C)N1C(=O)c2c(O)c(=O)c(C(=O)NCc3ccc(F)cc3F)cn2C[C@@]12C[C@@H]2CO` [Example T42, (1S,2S)-N-(2,4-difluorobenzyl)-9′-hydroxy-2-(hydroxymethyl)-2′-isopropyl-1′,8′-dioxo-1′,2′,4′,8′-tetrahydrospiro[cyclopropane-1,3′-pyrido[1,2-a]pyrazine]-7′-carboxamide], the EC50 worked out at 3.7 nM.
On to `CCOC[C@H]1C[C@]2(CN(CC)C(=O)c3c(O)c(=O)c(C(=O)NCc4cccc(Cl)c4F)cn32)C1` [Example S48, N-(3-chloro-2-fluorobenzyl)- cis-3-(ethoxymethyl)-2′-ethyl-9′-hydroxy-1′,8′-dioxo-1′,2′,3′,8′-tetrahydrospiro[cyclobutane-1,4′-pyrido[1,2-a]pyrazine]-7′-carboxamide hydrochloride], for which the EC50 was 4.3 nM.
Turning to `CCO[C@H]1C[C@]2(CN(C)C(=O)c3c(O)c(=O)c(C(=O)NCc4ccc(F)cc4F)cn32)C1` [Example S51, N-(2,4-difluorobenzyl)-cis-3-ethoxy-9′-hydroxy-2′-methyl-1′,8′-dioxo-1′,2′,3′,8′-tetrahydrospiro[cyclobutane-1,4′-pyrido[1,2-a]pyrazine]-7′-carboxamide hydrochloride], the EC50 amounted to 2.4 nM.
Same read-out and setting: the value for `CCOC[C@H]1C[C@@]12Cn1cc(C(=O)NCc3cccc(Cl)c3F)c(=O)c(O)c1C(=O)N2CC` [Example T45, (1S,2S)-N-(3-chloro-2-fluorobenzyl)-2-(ethoxymethyl)-2′-ethyl-9′-hydroxy-1′,8′-dioxo-1′,2′,4′,8′-tetrahydrospiro[cyclopropane-1,3′-pyrido[1,2-a]pyrazine]-7′-carboxamide] was 4.4 nM; that for `CCCCCCCCCCCCCCCC(=O)Oc1c2n(cc(C(=O)NCc3cccc(Cl)c3F)c1=O)[C@]1(CN(C)C2=O)C[C@H](COC)C1` [Example S69, 7′-(3-chloro-2-fluorobenzylcarbamoyl)-cis-3-(methoxymethyl)-2′-methyl-1′,8′-dioxo-1′,2′,3′,8′-tetrahydrospiro[cyclobutane-1,4′-pyrido[1,2-a]pyrazin]-9′-yl palmitate] was 1 nM.
In the case of `CC(C)N1C(=O)c2c(O)c(=O)c(C(=O)NCc3ccc(F)cc3F)cn2C[C@]12C[C@H](O)C2` [Example S55, N-(2,4-difluorobenzyl)-cis-3,9′-dihydroxy-2′-isopropyl-1′,8′-dioxo-1′,2′,4′,8′-tetrahydrospiro[cyclobutane-1,3′-pyrido[1,2-a]pyrazine]-7′-carboxamide hydrochloride], the EC50 turned out to be 33 nM.
Still for that read-out and setting: the same measure for `CC(C)O[C@H]1C[C@]2(CN(C)C(=O)c3c(O)c(=O)c(C(=O)NCc4cccc(Cl)c4F)cn32)C1` [Example S41, N-(3-chloro-2-fluorobenzyl)-9′-hydroxy-cis-3-isopropoxy-2′-methyl-1′,8′-dioxo-1′,2′,3′,8′-tetrahydrospiro[cyclobutane-1,4′-pyrido[1,2-a]pyrazine]-7′-carboxamide hydrochloride]: 3.5 nM.

The same assay, now with this note: Human immunodeficiency virus 1, NL43, MT4, 120 h, antiviral activity; MT-4 cells infected with HIV-1 NL4-3 (MOI 0.05), 5 days culture, Cell Titer-Glo luminescence.
The molecule `COC[C@H]1C[C@]2(CN(C)C(=O)c3c(O)c(=O)c(C(=O)NCc4cccc(Cl)c4F)cn32)C1` [Example 3, N-(3-chloro-2-fluorobenzyl)-9′-hydroxy-cis-3-(methoxymethyl)-2′-methyl-1′,8′-dioxo-1′,2′,3′,8′-tetrahydrospiro[cyclobutane-1,4′-pyrido[1,2-a]pyrazine]-7′-carboxamide hydrochloride] returned a half-maximal effective concentration (EC50) of 3.2 nM.
Still for that read-out and setting: the same measure for `CC(=O)N(C)C1CC2(C1)CN(C(C)C)C(=O)c1c(O)c(=O)c(C(=O)NCc3ccc(F)cc3F)cn12` (stereo not shown) [Example 20, N-(2,4-difluorobenzyl)-9′-hydroxy-2′-isopropyl-3-(N-methylacetamido)-1′,8′-dioxo-1′,2′,3′,8′-tetrahydrospiro[cyclobutane-1,4′-pyrido[1,2-a]pyrazine]-7′-carboxamide hydrochloride]: 20 nM; for `CC(C)N1C[C@]2(C[C@H]2CS(C)(=O)=O)n2cc(C(=O)NCc3cccc(Cl)c3F)c(=O)c(O)c2C1=O` [Example 21, (1R,2R)—N-(3-chloro-2-fluorobenzyl)-9′-hydroxy-2′-isopropyl-2-(methylsulfonylmethyl)-1′,8′-dioxo-1′,2′,3′,8′-tetrahydrospiro[cyclopropane-1,4′-pyrido[1,2-a]pyrazine]-7′-carboxamide hydrochloride]: 48 nM.

Staying with this assay, now noted: Human immunodeficiency virus 1, NL43, MT4, 120 h, antiviral activity; MT-4 cells infected with HIV-1 NL4-3 (MOI 0.05), 5 days culture, Cell Titer-Glo luminescence; read-out: EC50.
Take `CCN1C[C@]2(C[C@@H](OCc3ccccc3)C2)n2cc(C(=O)NCc3ccc(F)cc3F)c(=O)c(O)c2C1=O` [Example S15, trans-3-(benzyloxy)-N-(2,4-difluorobenzyl)-2′-ethyl-9′-hydroxy-1′,8′-dioxo-1′,2′,3′,8′-tetrahydrospiro[cyclobutane-1,4′-pyrido[1,2-a]pyrazine]-7′-carboxamide hydrochloride]: the 50% effective concentration (EC50) came out at 6.9 nM.
Same read-out and setting: the value for `CC(C)N1CC2(CC(O)C2)n2cc(C(=O)NCc3ccc(F)cc3F)c(=O)c(O)c2C1=O` (single isomer, unassigned) [Example S4, N-(2,4-difluorobenzyl)-cis-3,9′-dihydroxy-2′-isopropyl-1′,8′-dioxo-1′,2′,3′,8′-tetrahydrospiro[cyclobutane-1,4′-pyrido[1,2-a]pyrazine]-7′-carboxamide] was 4.9 nM; that for `CCN1C[C@]2(C[C@H](O)C2)n2cc(C(=O)NCc3ccc(F)cc3F)c(=O)c(O)c2C1=O` [Example S18, N-(2,4-difluorobenzyl)-2′-ethyl-cis-3,9′-dihydroxy-1′,8′-dioxo-1′,2′,3′,8′-tetrahydrospiro[cyclobutane-1,4′-pyrido[1,2-a]pyrazine]-7′-carboxamide hydrobromide] was 16 nM.
With `CC(C)N1C[C@]2(C[C@@H](OCc3ccccc3)C2)n2cc(C(=O)NCc3ccc(F)cc3F)c(=O)c(O)c2C1=O` [Example S1, trans-3-(benzyloxy)-N-(2,4-difluorobenzyl)-9′-hydroxy-2′-isopropyl-1′,8-dioxo-1′,2′,3′,8′-tetrahydrospiro[cyclobutane-1,4′-pyrido[1,2-a]pyrazine]-7′-carboxamide hydrochloride], the concentration for a half-maximal effect (EC50) was found to be 7.7 nM.

Staying with this assay, now noted: Human immunodeficiency virus 1, NL43, MT4, 120 h, read-out: antiviral activity (EC50), MT-4 cells infected with HIV-1 NL4-3 strain (MOI 0.05), cultured 5 days, Cell Titer-Glo.
On to `CCN1C[C@]2(C[C@H]2CO)n2cc(C(=O)NCc3ccc(F)cc3F)c(=O)c(O)c2C1=O` [Example T10, (1R,2R)-N-(2,4-difluorobenzyl)-2′-ethyl-9′-hydroxy-2-(hydroxymethyl)-1′,8′-dioxo-1′,2′,3′,8′-tetrahydrospiro[cyclopropane-1,4′-pyrido[1,2-a]pyrazine]-7′-carboxamide hydrochloride], for which the 50% effective concentration (EC50) came out at 16 nM.
On the same count and under the same terms, the value for `COC[C@H]1C[C@@]12CN(C)C(=O)c1c(O)c(=O)c(C(=O)NCc3ccc(F)cc3F)cn12` [Example T3, (1S,2S)-N-(2,4-difluorobenzyl)-9′-hydroxy-2-(methoxymethyl)-2′-methyl-1′,8′-dioxo-1′,2′,3′,8′-tetrahydrospiro[cyclopropane-1,4′-pyrido[1,2-a]pyrazine]-7′-carboxamide hydrochloride] was 4.5 nM; that for `CC(C)N1C[C@@]2(C[C@H]2CO)n2cc(C(=O)NCc3cccc(Cl)c3F)c(=O)c(O)c2C1=O` [Example T28, (1S,2R)-N-(3-chloro-2-fluorobenzyl)-9′-hydroxy-2-(hydroxymethyl)-2′-isopropyl-1′,8′-dioxo-1′,2′,3′,8′-tetrahydrospiro[cyclopropane-1,4′-pyrido[1,2-a]pyrazine]-7′-carboxamide hydrochloride] was 5.2 nM.

Staying with this assay, now noted: MT-4 cells infected with HIV-1 NL4-3 strain (MOI 0.05), cultured 5 days, Cell Titer-Glo; read-out: antiviral activity (EC50).
For `COC[C@H]1C[C@]2(CN(C)C(=O)c3c(O)c(=O)c(C(=O)NCc4cccc(Cl)c4F)cn32)C1` [Example 32, N-(3-chloro-2-fluorobenzyl)-9′-hydroxy-cis-3-(methoxymethyl)-2′-methyl-1′,8′-dioxo-1′,2′,3′,8′-tetrahydrospiro[cyclobutane-1,4′-pyrido[1,2-a]pyrazine]-7′-carboxamide monosulfate], the half-maximal effective concentration (EC50) was 0.9 nM.
As to `COC[C@H]1C[C@]2(CN(C)C(=O)c3c(O)c(=O)c(C(=O)NCc4cccc(Cl)c4F)cn32)C1` [Example 26, N-(3-chloro-2-fluorobenzyl)-9′-hydroxy-cis-3-(methoxymethyl)-2′-methyl-1′,8′-dioxo-1′,2′,3′,8′-tetrahydrospiro[cyclobutane-1,4′-pyrido[1,2-a]pyrazine]-7′-carboxamide], the EC50 is 1.9 nM.
